The experiment concerns the target T1, recombinant IRAK-4 kinase (Homo sapiens, UniProt Q9NWZ3).
T1 construct: purchased Millipore, USA
T1 sequence (Q9NWZ3 1-460): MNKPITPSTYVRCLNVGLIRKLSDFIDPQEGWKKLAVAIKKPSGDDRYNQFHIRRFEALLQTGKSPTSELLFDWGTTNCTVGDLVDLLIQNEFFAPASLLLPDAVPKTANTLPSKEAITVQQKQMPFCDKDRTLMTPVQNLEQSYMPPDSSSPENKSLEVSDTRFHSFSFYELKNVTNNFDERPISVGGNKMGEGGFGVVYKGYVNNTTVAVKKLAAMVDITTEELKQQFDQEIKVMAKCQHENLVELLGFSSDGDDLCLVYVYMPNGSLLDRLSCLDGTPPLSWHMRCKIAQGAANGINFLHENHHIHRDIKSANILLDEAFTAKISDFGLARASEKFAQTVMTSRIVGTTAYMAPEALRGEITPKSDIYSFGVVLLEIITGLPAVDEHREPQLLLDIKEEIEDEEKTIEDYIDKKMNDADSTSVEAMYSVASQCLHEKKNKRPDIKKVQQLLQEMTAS
Description: IRAK-4 Biochemical Assay (TR-FRET). As to conditions: 30 min pre-incubation, 100 nM Biotin Histone H3, 20 μM ATP, read-out: IC50 values for IRAK4 activity. For orientation: TR-FRET usually uses a lanthanide donor and a delayed reading to cut background.

Usually IC50 stands for the concentration at which inhibition is half-maximal.

The structures appear in SMILES notation. Counter-ions that a name gives are not always drawn. Where only a bound is given, the exact number is not on record here.

As for `Cn1cc2cc(NC(=O)c3cccc(N4CC[C@@H](O)C4)n3)c(N3CCCCC3)cc2n1` [Example 38, (R)-6-(3-hydroxypyrrolidin-1-yl)-N-(2-methyl-6-(piperidin-1-yl)-2H-indazol-5-yl)picolinamide], the concentration for half-maximal inhibition (IC50) is < 50 nM.
Turning to `Cc1cc(-c2nc(C(=O)Nc3cc4cnn(C)c4cc3N3CCC(CO)CC3)co2)ccn1` [Example 89, N-(6-(4-(hydroxymethyl)piperidin-1-yl)-1-methyl-1H-indazol-5-yl)-2-(2-methylpyridin-4-yl)oxazole-4-carboxamide], the IC50 is < 50 nM.
As to `Cc1ccc(C(=O)Nc2cc3cn(C)nc3cc2N2CCCCC2)nc1Cl` [Example 24, 6-chloro-5-methyl-N-(2-methyl-6-(piperidin-1-yl)-2H-indazol-5-yl)picolinamide], the IC50 was < 50 nM.
In the case of `COc1ccc(-c2nc(C(=O)Nc3cc4cn(C)nc4cc3N3CCCCC3)co2)cn1` [Example 21, 2-(6-methoxypyridin-3-yl)-N-(2-methyl-6-(piperidin-1-yl)-2H-indazol-5-yl)oxazole-4-carboxamide] it was < 50 nM; in that of `Cn1cc2cc(NC(=O)c3coc(-c4ccnc(Cl)c4)n3)c(N3CCCCC3)cc2n1` [Example 15, 2-(2-chloropyridin-4-yl)-N-(2-methyl-6-(piperidin-1-yl)-2H-indazol-5-yl)oxazole-4-carboxamide hydrochloride], < 50 nM.
The value for `Cn1cc2cc(NC(=O)c3coc(-c4ccnc(N)c4)n3)c(N3CCCCC3)cc2n1` [Example 86, 2-(2-aminopyridin-4-yl)-N-(2-methyl-6-(piperidin-1-yl)-2H-indazol-5-yl)oxazole-4-carboxamide hydrochloride] was < 50 nM; that for `CC(=O)Nc1cc(-c2nc(C(=O)Nc3cc4cn(C)nc4cc3N3CCC(CO)CC3)co2)ccn1` [Example 98, 2-(2-acetamidopyridin-4-yl)-N-(6-(4-(hydroxymethyl)piperidin-1-yl)-2-methyl-2H-indazol-5-yl)oxazole-4-carboxamide] was < 50 nM; that for `Cc1cc(-c2nc(C(=O)Nc3cc4cn(C)nc4cc3-c3cccc(F)c3)co2)ccn1` [Example 10, N-(6-(3-fluorophenyl)-2-methyl-2H-indazol-5-yl)-2-(2-methylpyridin-4-yl)oxazole-4-carboxamide] was < 50 nM.
Take `Cc1cc(-c2nc(C(=O)Nc3cc4cnn(C)c4cc3N3CC[C@H](O)C3)co2)ccn1` [Example 115, (S)—N-(6-(3-hydroxypyrrolidin-1-yl)-1-methyl-1H-indazol-5-yl)-2-(2-methylpyridin-4-yl)oxazole-4-carboxamide]: the IC50 was < 50 nM.
As for `COc1ccc(-c2nc(C(=O)Nc3cc4cn(C5CCCC5)nc4cc3C3CC3)co2)cn1` [Example 20, N-(2-cyclopentyl-6-cyclopropyl-2H-indazol-5-yl)-2-(6-methoxypyridin-3-yl)oxazole-4-carboxamide], the IC50 was < 50 nM.
Turning to `Cn1cc2cc(NC(=O)c3coc(-c4ccnc(N)c4)n3)c(N3CCCC(O)C3)cc2n1` (stereo not shown) [Example 102, 2-(2-aminopyridin-4-yl)-N-(6-(3-hydroxypiperidin-1-yl)-2-methyl-2H-indazol-5-yl)oxazole-4-carboxamide hydrochloride], the IC50 was < 50 nM.
Take `CCOP(=O)(OCC)OC1CCN(c2cc3c(cnn3C)cc2NC(=O)c2coc(-c3ccnc(C)c3)n2)CC1` [Example 128, Diethyl (1-(1-methyl-5-(2-(2-methylpyridin-4-yl)oxazole-4-carboxamido)-1H-indazol-6-yl)piperidin-4-yl) phosphate]: the IC50 lay within 50 to 100 nM.
With `Cn1cc2cc(NC(=O)c3coc(N4CC[C@H](N)C4)n3)c(N3CCCCC3)cc2n1` [Example 44, (S)-2-(3-aminopyrrolidin-1-yl)-N-(2-methyl-6-(piperidin-1-yl)-2H-indazol-5-yl)oxazole-4-carboxamide], the IC50 was < 50 nM.
For the compound `COCCn1cc2cc(NC(=O)c3coc(-c4ccnc(C)c4)n3)c(N3CCC(O)CC3)cc2n1` [Example 76, N-(6-(4-hydroxypiperidin-1-yl)-2-(2-methoxyethyl)-2H-indazol-5-yl)-2-(2-methylpyridin-4-yl)oxazole-4-carboxamide], the concentration for half-maximal inhibition (IC50) was < 50 nM.
With `CC(=O)Nc1cc(-c2nc(C(=O)Nc3cc4cn(C)nc4cc3N3CCCCC3)co2)ccn1` [Example 84, 2-(2-acetamidopyridin-4-yl)-N-(2-methyl-6-(piperidin-1-yl)-2H-indazol-5-yl)oxazole-4-carboxamide], the IC50 is < 50 nM.
As to `Cc1cc(-c2nc(C(=O)Nc3cc4cnn(C5CC5)c4cc3C3CC3)co2)ccn1` [Example 36, N-(1,6-dicyclopropyl-1H-indazol-5-yl)-2-(2-methylpyridin-4-yl)oxazole-4-carboxamide hydrochloride], the IC50 fell in the range of 50 to 100 nM.
Consider `Cc1cc(-c2nc(C(=O)Nc3cc4cnn(CCO)c4cc3N3CCC(O)CC3)co2)ccn1` [Example 117, N-(1-(2-hydroxyethyl)-6-(4-hydroxypiperidin-1-yl)-1H-indazol-5-yl)-2-(2-methylpyridin-4-yl)oxazole-4-carboxamide], for which the IC50 was < 50 nM.
In the case of `COc1cc(-c2nc(C(=O)Nc3cc4cnn(C)c4cc3N3CCC(O)CC3)co2)ccn1` [Example 101, N-(6-(4-hydroxypiperidin-1-yl)-1-methyl-1H-indazol-5-yl)-2-(2-methoxypyridin-4-yl)oxazole-4-carboxamide] it was < 50 nM.
Turning to `Cc1cc(-c2nc(C(=O)Nc3cc4c(C)nn(C)c4cc3N3CCCCC3)co2)ccn1` [Example 74, N-(1,3-dimethyl-6-(piperidin-1-yl)-1H-indazol-5-yl)-2-(2-methylpyridin-4-yl)oxazole-4-carboxamide], the IC50 was < 50 nM.
Consider `COc1cc(-c2nc(C(=O)Nc3cc4cn(C)nc4cc3N3CCCCC3)co2)ccn1` [Example 103, 2-(2-methoxypyridin-4-yl)-N-(2-methyl-6-(piperidin-1-yl)-2H-indazol-5-yl)oxazole-4-carboxamide], for which the IC50 is < 50 nM.
Regarding `CN(C)c1cc(-c2nc(C(=O)Nc3cc4cn(C)nc4cc3N3CCCCC3)co2)ccn1` [Example 120, 2-(2-(dimethylamino)pyridin-4-yl)-N-(2-methyl-6-(piperidin-1-yl)-2H-indazol-5-yl)oxazole-4-carboxamide hydrochloride], the IC50 is < 50 nM.
The value for `Cc1cc(-c2nc(C(=O)Nc3cc4c(C)nn(C)c4cc3N3CCC(F)CC3)co2)ccn1` [Example 87, N-(6-(4-fluoropiperidin-1-yl)-1,3-dimethyl-1H-indazol-5-yl)-2-(2-methylpyridin-4-yl)oxazole-4-carboxamide] was < 50 nM; that for `Cc1cc(-c2nc(C(=O)Nc3cc4cnn(C5CC5)c4cc3N3CCCCC3)co2)ccn1` [Example 31, N-(1-cyclopropyl-6-(piperidin-1-yl)-1H-indazol-5-yl)-2-(2-methylpyridin-4-yl)oxazole-4-carboxamide hydrochloride] was < 50 nM.
The value for `CC(O)CNc1cccc(C(=O)Nc2cc3cn(C)nc3cc2N2CCCCC2)n1` (stereo not shown) [Example 57, 6-((2-hydroxypropyl)amino)-N-(2-methyl-6-(piperidin-1-yl)-2H-indazol-5-yl)picolinamide] was < 50 nM; that for `Cc1cc(-c2nc(C(=O)Nc3cc4cn(C)nc4cc3N3CCCC(O)C3)co2)ccn1` (stereo not shown) [Example 68, N-(6-(3-hydroxypiperidin-1-yl)-2-methyl-2H-indazol-5-yl)-2-(2-methylpyridin-4-yl)oxazole-4-carboxamide] was < 50 nM.
Consider `COCCn1nc(C)c2cc(NC(=O)c3coc(-c4ccnc(C)c4)n3)c(N3CCC(O)CC3)cc21` [Example 116, N-(6-(4-hydroxypiperidin-1-yl)-1-(2-methoxyethyl)-3-methyl-1H-indazol-5-yl)-2-(2-methylpyridin-4-yl)oxazole-4-carboxamide], for which the IC50 was < 50 nM.
Turning to `C[C@H](O)Cn1cc(-c2cccc(C(=O)Nc3cc4cn(C)nc4cc3N3CCCCC3)n2)cn1` [Example 34, (S)-6-(1-(2-hydroxypropyl)-1H-pyrazol-4-yl)-N-(2-methyl-6-(piperidin-1-yl)-2H-indazol-5-yl)picolinamide], the half-maximal inhibitory concentration (IC50) was < 50 nM.
Take `Nc1ccc(-c2cccc(C(=O)Nc3cc4cn(C5CCCC5)nc4cc3N3CCOCC3)n2)cn1` [Example 9, 6′-amino-N-(2-cyclopentyl-6-morpholino-2H-indazol-5-yl)-[2,3′-bipyridine]-6-carboxamide 2,2,2-trifluoroacetate]: the IC50 is < 50 nM.
The value for `COCCn1ncc2cc(NC(=O)c3coc(-c4ccnc(C)c4)n3)c(N3CCC(O)CC3)cc21` [Example 75, N-(6-(4-hydroxypiperidin-1-yl)-1-(2-methoxyethyl)-1H-indazol-5-yl)-2-(2-methylpyridin-4-yl)oxazole-4-carboxamide] was < 50 nM; that for `Cc1cc(-c2nc(C(=O)Nc3cc4cn(C)nc4cc3N3CCCCC3)co2)ccn1` [Example 2, N-(2-methyl-6-(piperidin-1-yl)-2H-indazol-5-yl)-2-(2-methylpyridin-4-yl) oxazole-4-carboxamide] was < 50 nM.
Consider `Cc1ccc(-c2nc(C(=O)Nc3cc4cn(C)nc4cc3N3CCCCC3)co2)cn1` [Example 25, N-(2-methyl-6-(piperidin-1-yl)-2H-indazol-5-yl)-2-(6-methylpyridin-3-yl)oxazole-4-carboxamide], for which the IC50 is < 50 nM.

Values taken from US10160753B2, “Indazole compounds as IRAK4 inhibitors” (Aurigene Discovery Technologies Limited, priority 2014, dated 2018).
